The values that follow come from PMC9181899, “Synthesis and Anticancer Properties of New 3-Methylidene-1-sulfonyl-2,3-dihydroquinolin-4(1H)-ones” (Molecules, 2022).

Where two headings read alike, the source gives them in different places. Where only a bound is given, the exact number is not on record here.

For series [1], the system named is HL-60 cells. The series can be described thus: MTT in vitro cytotoxicity assay, HL-60. The series is classed as cell-based. Particulars: 48 h incubation, mean ± SEM, read-out: IC50 HL-60. On the procedure: (§1) The promyelocytic leukemia HL-60 and breast cancer adenocarcinoma MCF-7 cell lines were purchased from the European Collection of Cell Cultures (ECACC). Leukemia cells were cultured in RPMI 1640 plus GlutaMax I medium (Gibco/Life Technologies, Carlsbad, CA, USA). MCF-7 cells were maintained in Minimum Essential Medium Eagle (Sigma Aldrich, St. Louis, MO, USA) and supplemented with 2 mM glutamine and men non-essential amino acid solution (Sigma Aldrich, St. Louis, MO, USA). Both media were supplemented with 10% heat-inactivated fetal bovine serum (Biological Industries, Beit-Haemek, Israel) and antibiotics (100 U/mL penicillin and 100 μg/mL streptomycin) (Sigma-Aldrich, St. Louis, MO, USA). Human umbilical vein endothelial cells (HUVECs) were purchased from the American Type Culture Collection (ATCC). Cells were cultured using EGM-2 Endothelial Medium BulletKit purchased from Lonza (Lonza, Walkersville, MD, USA). Cells were maintained at 37 °C in 5% CO2 atmosphere and grown until 80% confluent.
(§2) The tested compounds were dissolved in sterile dimethyl sulfoxide (DMSO) and further diluted with culture medium. The final concentration of DMSO in cell cultures was less than 0.1% v/v. Controls without and with 0.1% DMSO were performed in each experiment. At the used concentration, DMSO had no effect on the observed parameters.
(§3) The MTT (3-(4,5-dimethylthiazol-2-yl)-2,5-diphenyltetrazolium bromide) assay, which measures the activity of cellular dehydrogenases, was performed according to the Mosmann method. Exponentially growing cells were seeded into 24-well plates at a density of 8 × 10^4 cells/mL and left to grow for 24 h. After 24 h or 48 h of incubation with various concentrations of the tested compounds (dissolved in DMSO and diluted with complete culture medium), cells were incubated with 0.1 mL of MTT solution (5 mg/mL in phosphate buffered saline) for 1.5 h. The metabolically active cells reduced MTT to blue formazan crystals. The plates were centrifuged, and the supernatant was discarded. DMSO (1 mL) was added to each well to dissolve the crystals, whose absorbance was measured at 560 nm using FlexStation 3 Multi-Mode Microplate Reader (Molecular Devices, LLC, San Jose, CA, USA). The untreated cells were used as control. The IC50 values were calculated from the concentration–response curves. The data were expressed as mean ± SEM of three independent experiments.

The subject of a further series is MCF-7 cells. In words: MTT in vitro cytotoxicity assay, MCF-7. As to conditions: Homo sapiens, MCF7, 48 h incubation, mean ± SEM. Type of series: cell-based. On the procedure:
as §1, §2, §3

Another series concerns HUVEC cells. The series can be described thus: MTT in vitro cytotoxicity assay, HUVEC (normal cells). Type of series: cell-based, human. As to conditions: Homo sapiens, HUVEC, 48 h incubation, mean ± SEM. On the procedure:
as §1, §2, §3

Series [2] concerns HL-60 cells. The series can be described thus: Apoptosis by cleaved PARP (Asp214) staining, flow cytometry. The series is classed as cell-based. As to conditions: 24 h, control 1.4%. The procedure:
To evaluate the anticancer potential of 5a, the ability of this compound to inhibit cell proliferation, induce apoptotic cell death, and generate DNA damage was examined by flow cytometry using the ‘Apoptosis, DNA Damage, and Cell Proliferation Kit’ (BD Bioscience). After 24 h treatment with 5a in increasing concentrations, HL-60 cells were exposed to bromodeoxyuridine (BrdU) for additional 8 h. Then, the cells were simultaneously stained with fluorochrome-labeled anti-BrdU, anti-cleaved PARP (Asp214) and anti-H2AX (pS139).
To check whether the cytotoxic effect of 5a was associated with the induction of apoptosis, the pro-apoptotic activity of this compound was investigated. Apoptosis regulation is triggered by the activation of caspases. Caspase-3, an effector caspase, cleaves a number of vital proteins, leading to cell death. The activity of caspase-3 was assessed by flow cytometry using fluorochrome-labeled antibodies recognizing 89 kDa-cleaved PARP fragments released from PARP by caspase-3 in the executive stage of apoptosis.
Cell proliferation, DNA damage, and apoptotic cell death were determined using Apoptosis, DNA Damage, and Cell Proliferation Kit (BD Bioscience, San Jose, CA, USA), according to the manufacturer protocol. Briefly, HL-60 cells were seeded in 6-well plates (4.0 × 10^5 cells/mL) in 2 mL of growth medium and treated with 5a for 24 h. Afterwards, the bromodeoxyuridine (BrdU, 10 µM) was added and the cells were incubated for additional 8 h. Next, the cells were collected by centrifugation (300× g, 5 min), counted, fixed, and permeabilized according to the manufacturer’s instructions. The cells were incubated with DNase (300 µg/mL in PBS) for 1 h at 37 °C and then simultaneously stained with fluorochrome-labeled anti-BrdU, H2AX (pS139), and cleaved PARP (Asp214) antibodies, for 20 min at room temperature. After washing, DNA staining with DAPI (1 µg/mL of the staining buffer) was performed, and the cells were analyzed by flow cytometry using CytoFLEX (Beckman Coulter, Inc., Brea, CA, USA).
Background: A flow cytometer gives signals particle by particle.

One may read the melting point as the temperature of the solid-liquid transition. As usually defined, the IC50 is the midpoint of a concentration-inhibition curve. Turning to `C=C1C(=O)c2cc(OC)c(OC)cc2N(S(=O)(=O)c2ccc(C)cc2)C1CC` (stereo not shown) [Compound 5i, 2-Ethyl-6,7-dimethoxy-3-methylidene-1-tosyl-2,3-dihydroquinolin-4(1H)-one], the melting point came out at 168 °C. Also, the IC50 in the series on HL-60 cells [1] (Homo sapiens, HL-60, 48 h) stood at 370 ± 20 nM. This compound registered an IC50 in the series on MCF-7 cells of 1010 ± 50 nM. The compound further returned an IC50 in the series on HUVEC cells of 420 ± 80 nM.

Consider `CCOP(=O)(OCC)C1=C(O)c2ccccc2N(S(=O)(=O)c2ccccc2)C1CC` (stereo not shown) [Compound 10a], for which the results for the “apoptotic cells (cleaved PARP positive) population” value with HL-60 cells [2] (1.35 µM) and in the series on HL-60 cells [2] (1.8 µM) were 20.6% and 26.4%, respectively.

`C=C1C(=O)c2ccccc2N(S(=O)(=O)c2ccccc2)C1C(C)C` (stereo not shown) [Compound 5b, 3-Methylidene-1-(phenylsulfonyl)-2-(propan-2-yl)-2,3-dihydroquinolin-4(1H)-one] showed a melting point of 86 °C. In the series on HL-60 cells [1], the IC50 was 290 ± 20 nM. Moreover, the IC50 in the series with HL-60 cells [1] (Homo sapiens, HL-60, 48 h) was below 300 nM. For the same compound, the IC50 with MCF-7 cells is 830 ± 20 nM. Also, half-maximal inhibition in the series with HUVEC cells (IC50) was put at 780 ± 210 nM.

In turn, `C=C1C(=O)c2ccccc2N(S(=O)(=O)c2ccc(Cl)cc2)C1C(C)C` (stereo not shown) [Compound 5f, 1-((4-Chlorophenyl)sulfonyl)-3-methylidene-2-(propan-2-yl)-2,3-dihydroquinolin-4(1H)-one] returned a melting point of 126 °C. Moreover, the IC50 in the series on HL-60 cells [1] was 230 ± 10 nM. The IC50 in the series with HL-60 cells [1] (Homo sapiens, HL-60, 48 h) is below 300 nM. In the series with MCF-7 cells, this compound showed an IC50 of 860 ± 20 nM. It took 990 ± 70 nM to reach half-maximal inhibition with HUVEC cells (IC50).

Consider `C=C1C(=O)c2cc(Br)ccc2N(S(=O)(=O)c2ccc(C)cc2)C1C(C)C` (stereo not shown) [Compound 5r, 6-Bromo-3-methylidene-2-(propan-2-yl)-1-tosyl-2,3-dihydroquinolin-4(1H)-one], for which the melting point is 118 °C. For the same compound, the IC50 in the series on HL-60 cells [1] stood at 190 ± 30 nM. Also, in the series on HL-60 cells [1] (Homo sapiens, HL-60, 48 h), the IC50 was below 300 nM. In the series on MCF-7 cells, this compound had an IC50 of 830 ± 20 nM. In the series on HUVEC cells, this compound returned an IC50 of 470 ± 30 nM.

With `C=C1C(=O)c2ccccc2N(S(=O)(=O)c2ccc(Cl)cc2)C1CC` (stereo not shown) [Compound 5e, 1-((4-Chlorophenyl)sulfonyl)-2-ethyl-3-methylidene-2,3-dihydroquinolin-4(1H)-one], the melting point was determined as 118 °C. Besides, in the series with HL-60 cells [1] (Homo sapiens, HL-60, 48 h), the IC50 is 370 ± 50 nM. In the series on MCF-7 cells, the midpoint of inhibition, the IC50, lay at 1610 ± 70 nM. Further, the IC50 with HUVEC cells was determined as 750 nM.

`C=C1C(=O)c2cc(Cl)ccc2N(S(=O)(=O)c2ccc(C)cc2)C1C(C)C` (stereo not shown) [Compound 5n, 6-Chloro-3-methylidene-2-(propan-2-yl)-1-tosyl-2,3-dihydroquinolin-4(1H)-one]: the melting point amounted to 130 °C. For the same compound, in the series with HL-60 cells [1] (Homo sapiens, HL-60, 48 h), the IC50 stood at 670 ± 10 nM. The compound also yielded an IC50 with MCF-7 cells of 1650 ± 50 nM. The same compound had an IC50 in the series on HUVEC cells of 680 ± 30 nM.

For the compound `C=C1C(=O)c2cc(Br)ccc2N(S(=O)(=O)c2ccc(C)cc2)C1CC` (stereo not shown) [Compound 5q, 6. -Bromo-2-ethyl-3-methylidene-1-tosyl-2,3-dihydroquinolin-4(1H)-one], the melting point was found to be 132 °C. Moreover, the IC50 in the series on HL-60 cells [1] (Homo sapiens, HL-60, 48 h) came out at 610 ± 40 nM. For the same compound, the IC50 with MCF-7 cells was determined as 1830 ± 150 nM. Moreover, 1000 ± 220 nM corresponded to half-maximal inhibition in the series on HUVEC cells (IC50).

With `C=C1C(=O)c2cc(OC)c(OC)cc2N(S(=O)(=O)c2ccc(C)cc2)C1C(C)C` (stereo not shown) [Compound 5j, 6,7-Dimethoxy-3-methylidene-2-(propan-2-yl)-1-tosyl-2,3-dihydroquinolin-4(1H)-one], the melting point was 150 °C. In addition, in the series with HL-60 cells [1] (Homo sapiens, HL-60, 48 h), the IC50 amounted to 430 ± 20 nM. Further, in the series with MCF-7 cells, the IC50 was found to be 1440 ± 70 nM. The compound also had an IC50 with HUVEC cells of 990 ± 70 nM.
